≈ marks a conversion by molar mass, not a printed value. Like-named read-outs stand apart in the source and are kept apart here. Positions of bridges follow the written chain, without caps; N, C: chain ends. Non-standard residues stand in square brackets, D forms with d. Residues, ends and D or L forms follow the SMILES beside them. ξ: configuration not given here. *: point of attachment. Phe(3,5-F2) = N[C@@H](Cc1cc(F)cc(F)c1)C(=O)O; Phe(3-Cl) = N[C@@H](Cc1cccc(Cl)c1)C(=O)O; ξPhe(3,5-F2) = NC(Cc1cc(F)cc(F)c1)C(=O)O; Pro(4R-Me) = C[C@H]1CN[C@H](C(=O)O)C1; Phe(2-F) = N[C@@H](Cc1ccccc1F)C(=O)O; Heptenoyl(2E) = CCCC/C=C/C(=O)*; NMeS = CN[C@@H](CO)C(=O)O; X4 = O=C(/C=C/C1CC=CCC1)*; NMeA = CN[C@@H](C)C(=O)O; X1 = CC(C)/C=C(\F)C(=O)*; X5 = CCCC(C)/C=C/C(=O)*; X2 = CCCCC/C=C/C(=O)*; ξPip = O=C(O)C1CCCCN1; X3 = O=C(C=C1CCC1)*
What was measured:
[1] = amide bond, EDC/pentafluorophenol (Pfp ester), then HCl/dioxane, then aq. NaHCO3, dichloromethane, 25.0 °C, 3 steps
[2] = tested on: Enterococcus faecalis ICB 27159; assay: Minimum inhibitory concentration (MIC), liquid dilution test; type: cell-based; details: ICB27159, Müller Hinton broth, 37° C., 18-24 hours, 8-10% of CO2
Experimental: (§1) Determination of the Minimum Inhibitory Concentration (MIC): The MIC is determined in the liquid dilution test. Overnight cultures of the test microorganisms are diluted 1:5 000 or S. aureus 133 is diluted 1:10 000 in Müller Hinton broth (manufacturer: BBL) and incubated with dilutions of the test substances (dilution stages 1:2). Exceptions are the tests with S. pyogenes Wacker and S. pneumoniae 1707/4, which are carried out in Müller Hinton broth plus 20% bovine serum. The cultures are incubated at 37° C. for 18-24 hours; enterococci and streptococci in the presence of 8-10% of CO2. The lowest substance concentration in each case at which visible bacterial growth no longer takes place is defined as the MIC. […] The compounds show very good antibacterial action against most of the test microorganisms and thus a broad Gram-positive action.

[3] = tested on: Streptococcus pneumoniae 1707/4; assay: as above; type: cell-based; details: Müller Hinton broth plus 20% bovine serum, 37° C., 18-24 hours, 8-10% of CO2
Experimental: as §1

[4] = tested on: Staphylococcus aureus 133; assay: as above; type: cell-based; details: Müller Hinton broth, overnight culture diluted 1:10 000, 37° C., 18-24 hours
Experimental: as §1

[5] = tested on: Streptococcus pyogenes Wacker; assay: as above; type: cell-based; details: Müller Hinton broth plus 20% bovine serum, 37° C., 18-24 hours, 8-10% of CO2
Experimental: as §1

[6] = tested on: Enterococcus faecium L 4001; assay: as above; type: cell-based; details: L4001, Müller Hinton broth, 37° C., 18-24 hours, 8-10% of CO2
Experimental: as §1

Structure (SMILES) | MIC [2] [µg/mL] | MIC [3] [µg/mL] | MIC [4] [µg/mL] | MIC [5] [µg/mL] | MIC [6] [µg/mL] | ring closure, yield of all isomers ([1]; from C[C@@H]1C[C@@H](C(=O)OC[C@H](NC(=O)OCc2ccccc2)C(=O)O)N(C(=O)[C@H](C)NC(=O)[C@@H]2CCCCN2C(=O)[C@@H]2CCCN2C(=O)OC(C)(C)C)C1, 2.58 mM, 16.0 h) [%] | ring closure, yield of all isomers ([1]; from C[C@H](NC(=O)[C@H](C)N(C)C(=O)[C@@H]1CCCN1C(=O)OC(C)(C)C)C(=O)N1CCC[C@H]1C(=O)OC[C@H](NC(=O)OCc1ccccc1)C(=O)O, 8.9 mM, 2.0 h) [%]
C[C@@H]1C[C@H]2C(=O)OC[C@H](NC(=O)OCc3ccccc3)C(=O)N3CCC[C@H]3C(=O)N3CCCC[C@H]3C(=O)N[C@@H](C)C(=O)N2C1 |  |  |  |  |  | 60 | 
C[C@@H]1NC(=O)[C@H](C)N(C)C(=O)[C@@H]2CCCN2C(=O)[C@@H](NC(=O)OCc2ccccc2)COC(=O)[C@@H]2CCCN2C1=O |  |  |  |  |  |  | 58
C[C@@H]1NC(=O)[C@H](C)N(C)C(=O)[C@@H]2CCCN2C(=O)[C@@H](NC(=O)[C@H](Cc2ccccc2F)NC(=O)/C=C/C2CC=CCC2)COC(=O)[C@@H]2CCCN2C1=O (stereo partly drawn) [Example 28] (X4-[Phe(2-F)]SP[NMeA]AP; ester 2-C) | 8 (≈ 10.9 µM) | 1 | 8 (≈ 10.9 µM) | 2 | 4 (≈ 5.43 µM) |  | 
CCCCC/C=C/C(=O)N[C@@H](Cc1cccc(Cl)c1)C(=O)N[C@H]1COC(=O)[C@@H]2CCCN2C(=O)[C@H](C)NC(=O)[C@H](C)N(C)C(=O)[C@@H]2CCCN2C1=O [Example 32] (X2-[Phe(3-Cl)]SP[NMeA]AP; ester 2-C) | 1 (≈ 1.35 µM) | 2 | 4 (≈ 5.38 µM) | 2 | 0.5 (≈ 0.673 µM) |  | 
CCCC/C=C/C(=O)NC(Cc1cc(F)cc(F)c1)C(=O)N[C@H]1COC(=O)[C@@H]2CCCN2C(=O)CNC(=O)C2CCCCN2C(=O)[C@@H]2CCCN2C1=O (stereo partly drawn) [Example 61] ({Heptenoyl(2E)}-[ξPhe(3,5-F2)]SP[ξPip]GP; ester 2-C) | 32 (≈ 43.1 µM) | 16 | 64 (≈ 86.2 µM) | 16 | 32 (≈ 43.1 µM) |  | 
C[C@@H]1NC(=O)[C@H](C)N(C)C(=O)[C@@H]2CCCN2C(=O)[C@@H](NC(=O)[C@H](Cc2cc(F)cc(F)c2)NC(=O)C=C2CCC2)COC(=O)[C@@H]2CCCN2C1=O [Example 85] (X3-[Phe(3,5-F2)]SP[NMeA]AP; ester 2-C) | 2 (≈ 2.8 µM) | 1 | 32 (≈ 44.8 µM) | 2 | 4 (≈ 5.6 µM) |  | 

More lines, main results first:

MIC [2] [µg/mL] | MIC [3] [µg/mL] | MIC [4] [µg/mL] | MIC [5] [µg/mL] | MIC [6] [µg/mL] | Structure (SMILES) | ring closure, yield of all isomers ([1]; from C[C@@H]1C[C@@H](C(=O)OC[C@H](NC(=O)OCc2ccccc2)C(=O)O)N(C(=O)[C@H](C)NC(=O)[C@@H]2CCCCN2C(=O)[C@@H]2CCCN2C(=O)OC(C)(C)C)C1, 2.58 mM, 16.0 h) [%] | ring closure, yield of all isomers ([1]; from C[C@H](NC(=O)[C@H](C)N(C)C(=O)[C@@H]1CCCN1C(=O)OC(C)(C)C)C(=O)N1CCC[C@H]1C(=O)OC[C@H](NC(=O)OCc1ccccc1)C(=O)O, 8.9 mM, 2.0 h) [%]
< 0.125 | < 0.125 | 0.25 (≈ 0.342 µM) | 25 | < 0.125 | CCCC/C=C/C(=O)N[C@@H](Cc1cc(F)cc(F)c1)C(=O)N[C@H]1COC(=O)[C@@H]2CCCN2C(=O)[C@H](C)NC(=O)[C@H](C)N(C)C(=O)[C@@H]2CCCN2C1=O [Example 1, (E)-Hept-2-enoic acid [(S)-2-(3,5-difluorophenyl)-1-((3S,7S,13S,16S,19S)-13,16,17-trimethyl-2,6,12,15,18-pentaoxo-5-oxa-1,11,14,17-tetraazatricyclo[17.3.0.0^7,11]docos-3-ylcarbamoyl)-ethyl]-amide] ({Heptenoyl(2E)}-[Phe(3,5-F2)]SP[NMeA]AP; ester 2-C) |  | 
< 0.125 | < 0.125 | 0.5 (≈ 0.626 µM) | 0.5 | < 0.125 | C[C@@H]1C[C@H]2C(=O)OC[C@H](NC(=O)[C@H](Cc3cc(F)cc(F)c3)NC(=O)CCC3CCCCC3)C(=O)N3CCC[C@H]3C(=O)N3CCCC[C@H]3C(=O)N[C@@H](C)C(=O)N2C1 [Example 3, 3-Cylcohexylpropanoic acid [(S)-2-(3,5-difluorophenyl)-1-((3S,9S,13S,15R,19S,22S)-15,19-Dimethyl-2,8,12,18,21-pentaoxo-11-oxa-1,7,17,20-tetraaza-tetracyclo[20.4.0.0^3,7.0^13,17]hexacos-9-ylcarbamoyl)-ethyl]-amide] |  | 
< 0.125 | 0.125 | < 0.125 | 0.25 | < 0.125 | CCCC/C=C/C(=O)N[C@@H](Cc1cc(F)cc(F)c1)C(=O)N[C@H]1COC(=O)[C@@H]2C[C@@H](C)CN2C(=O)[C@H](C)NC(=O)[C@H](C)N(C)C(=O)[C@@H]2CCCN2C1=O [Example 6] ({Heptenoyl(2E)}-[Phe(3,5-F2)]SP[NMeA]A[Pro(4R-Me)]; ester 2-C) |  | 
< 0.125 | < 0.125 | 0.25 (≈ 0.335 µM) | < 0.125 | < 0.125 | CCCC/C=C/C(=O)N[C@@H](Cc1cc(F)cc(F)c1)C(=O)N[C@H]1COC(=O)[C@@H]2CCCN2C(=O)[C@H](C)NC(=O)[C@H](CO)N(C)C(=O)[C@@H]2CCCN2C1=O [Example 13] ({Heptenoyl(2E)}-[Phe(3,5-F2)]SP[NMeS]AP; ester 2-C) |  | 
< 0.125 | < 0.125 | 0.5 (≈ 0.671 µM) | 0.25 | < 0.125 | CCCC(C)/C=C/C(=O)N[C@@H](Cc1cc(F)cc(F)c1)C(=O)N[C@H]1COC(=O)[C@@H]2CCCN2C(=O)[C@H](C)NC(=O)[C@H](C)N(C)C(=O)[C@@H]2CCCN2C1=O (stereo partly drawn) [Example 75] (X5-[Phe(3,5-F2)]SP[NMeA]AP; ester 2-C) |  | 
< 0.125 | 0.5 | 0.25 (≈ 0.325 µM) | 1 | < 0.125 | C=CCC/C=C/C(=O)N[C@@H](Cc1cc(F)cc(F)c1)C(=O)N[C@H]1COC(=O)[C@@H]2C[C@@H](C)CN2C(=O)[C@H](C)NC(=O)[C@@H]2CCCCN2C(=O)[C@@H]2CCCN2C1=O [Example 79] |  | 
0.5 (≈ 0.68 µM) | 0.25 | 4 (≈ 5.44 µM) | 0.5 | 0.5 (≈ 0.68 µM) | CC(C)/C=C(\F)C(=O)N[C@@H](Cc1cc(F)cc(F)c1)C(=O)N[C@H]1COC(=O)[C@@H]2CCCN2C(=O)[C@H](C)NC(=O)[C@H](C)N(C)C(=O)[C@@H]2CCCN2C1=O [Example 84] (X1-[Phe(3,5-F2)]SP[NMeA]AP; ester 2-C) |  | 

From patent US7405201B2, “Antibacterial macrocycles” (Bayer Healthcare AG, priority 2001, dated 2008)
